The source of these data is patent US20240217968A1, “PHARMACEUTICAL COMPOUND” (DUKE STREET BIO LIMITED, priority 2021, published 2024).

For this assay, the target named is T1, recombinant human Flag-tagged PARP7 (amino acids 456-657) (Homo sapiens, UniProt Q7Z3E1).
T1 construct: recombinant human Flag-tagged PARP7 (amino acids 456-657)
T1 sequence (Q7Z3E1 456-657): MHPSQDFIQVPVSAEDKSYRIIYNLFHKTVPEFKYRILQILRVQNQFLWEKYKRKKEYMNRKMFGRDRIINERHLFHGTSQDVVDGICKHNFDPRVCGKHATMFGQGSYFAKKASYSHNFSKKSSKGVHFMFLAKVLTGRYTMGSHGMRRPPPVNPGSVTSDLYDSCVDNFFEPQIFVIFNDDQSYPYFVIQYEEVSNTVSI
In words: PARP7 biochemical DELFIA assay (auto-MARylation). The following applies: DELFIA readout, IC50 class. A digest of the protocol: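 Flag-PARP7 (456-657), 12.5-37.5 nM stock, captured on anti-FLAG wells, preincubated 30 min with compound, then auto-MARylated with biotin-NAD+ (15 μM stock) in HEPES pH 7.5/NaCl/DTT/BSA/Tween for 2-3 h at room temperature. NAD+ quench; Eu-streptavidin DELFIA read, Ex337/Em620 nm.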

A word on the IC50: it is the concentration at which inhibition is half-maximal. Consider `CC(COCCC(=O)N1CCN(c2ncc(C#N)cn2)CC1)n1nc(C(F)F)c2c(=O)[nH]ncc21` (single isomer, unassigned) [Compound 491], for which the IC50 is at most 100 nM. `CC(CCOCC(=O)N1CCN(c2ccc(C#N)cn2)CC1)n1cc(C(F)(F)F)c2c(=O)[nH]ncc21` (single isomer, unassigned) [Compound 494]: the IC50 is at most 100 nM. As for `CC(CCOCC(=O)N1CCN(c2ccc(C#N)cn2)CC1)n1cc(C(F)(F)F)c2c(=O)[nH]ncc21` (single isomer, unassigned) [Compound 495], the figure is 100 to 1000 nM.

Regarding `CC(CCOCC(=O)N1CCN(c2ncc(C#N)cn2)CC1)n1nc(C(F)(F)F)c2c(=O)[nH]ncc21` (single isomer, unassigned) [Compound 496], the IC50 was at most 100 nM. As to `CC(CCOCC(=O)N1CCN(c2ncc(C#N)cn2)CC1)n1nc(C(F)(F)F)c2c(=O)[nH]ncc21` (single isomer, unassigned) [Compound 497], the IC50 is at most 100 nM. Consider `CC(COCCC(=O)N1CCN(c2ncc(C(C)(C)C)cn2)CC1)n1cc(C(F)(F)F)c2c(=O)[nH]ncc21` (single isomer, unassigned) [Compound 498], for which the IC50 was at most 100 nM. For `CC(COCCC(=O)N1CCN(c2ncc(C(C)(C)C)cn2)CC1)n1cc(C(F)(F)F)c2c(=O)[nH]ncc21` (single isomer, unassigned) [Compound 499], the 50% inhibitory concentration (IC50) was at most 100 nM. As for `CC(COCCC(=O)N1CCN(c2ncc(C(C)(C)C)cn2)CC1)n1nc(C(F)(F)F)c2c(=O)[nH]ncc21` (single isomer, unassigned) [Compound 500], the figure is at most 100 nM. For `CC(COCCC(=O)N1CCN(c2ncc(C(C)(C)C)cn2)CC1)n1nc(C(F)(F)F)c2c(=O)[nH]ncc21` (single isomer, unassigned) [Compound 501], the IC50 was at most 100 nM.

For `N#Cc1ccc(N2CCN(C(=O)c3cccc(Cc4cccc5c(=O)[nH]ncc45)c3)CC2)nc1` [Compound 1, 6-(4-(3-((1-oxo-1,2-dihydrophthalazin-5-yl)methyl)benzoyl)piperazin-1-yl)nicotinonitrile], the IC50 is at most 100 nM.

On to `O=C(c1cccc(Cc2cccc3c(=O)[nH]ncc23)c1)N1CCN(C(=O)C2CC2)CC1` [Compound 2], for which the IC50 lay within 1000 to 10000 nM.

As for `O=C(COCCOc1cccc2c(=O)[nH]ncc12)N1CCN(c2ncc(C(F)(F)F)cn2)CC1` [Compound 3], the IC50 was in the range of 100 to 1000 nM.

In the case of `O=C(CCOCCc1cccc2c(=O)[nH]ncc12)N1CCN(c2ncc(C(F)(F)F)cn2)CC1` [Compound 4], the IC50 was at most 100 nM. Turning to `N#Cc1ccc(N2CCN(C(=O)c3cccc(CN4CCc5c4cn[nH]c5=O)c3)CC2)nc1` [Compound 5], the IC50 was 1000 to 10000 nM. With `O=C(CCOCCN1CCc2c1cn[nH]c2=O)N1CCN(c2ncc(C(F)(F)F)cn2)CC1` [Compound 6], the IC50 was in the range of 100 to 1000 nM. Consider `N#Cc1ccc(N2CCN(C(=O)c3cccc(CN4CCCc5c4cn[nH]c5=O)c3)CC2)nc1` [Compound 7], for which the IC50 lay in the range of 100 to 1000 nM. As for `O=C(CCOCCN1CCCc2c1cn[nH]c2=O)N1CCN(c2ncc(C(F)(F)F)cn2)CC1` [Compound 8], the figure is at most 100 nM; as for `N#Cc1ccc(N2CCN(C(=O)c3cccc(Cn4ccc5c(=O)[nH]ncc54)c3)CC2)nc1` [Compound 9], 100 to 1000 nM. As for `O=C(CCOCCn1ccc2c(=O)[nH]ncc21)N1CCN(c2ncc(C(F)(F)F)cn2)CC1` [Compound 10, 1-(2-(3-oxo-3-(4-(5-(trifluoromethyl)pyrimidin-2-yl)piperazin-1-yl)propoxy)ethyl)-1,5-dihydro-4H-pyrrolo[2,3-d]pyridazin-4-one], the 50% inhibitory concentration (IC50) was at most 100 nM. Take `N#Cc1ccc(N2CCN(C(=O)c3cccc(CN4CCOc5c4cn[nH]c5=O)c3)CC2)nc1` [Compound 11]: the IC50 was 1000 to 10000 nM.

As to `O=C(CCOCCN1CCOc2c1cn[nH]c2=O)N1CCN(c2ncc(C(F)(F)F)cn2)CC1` [Compound 12], the IC50 was in the range of 100 to 1000 nM. Consider `O=C(COCCOc1cccc2c(=O)[nH]cnc12)N1CCN(c2ncc(C(F)(F)F)cn2)CC1` [Compound 15], for which the IC50 lay within 100 to 1000 nM.

Regarding `O=C(CCOCCc1cccc2c(=O)[nH]cnc12)N1CCN(c2ncc(C(F)(F)F)cn2)CC1` [Compound 16], the IC50 lay in the range of 100 to 1000 nM. As to `O=C(COCCNc1cccc2c(=O)[nH]cnc12)N1CCN(c2ncc(C(F)(F)F)cn2)CC1` [Compound 17], the IC50 was in the range of 1000 to 10000 nM. On to `N#Cc1ccc(N2CCN(C(=O)c3cccc(Cc4cccc5c(=O)[nH]c(=O)[nH]c45)c3)CC2)nc1` [Compound 18], for which the IC50 was 100 to 1000 nM.

`O=C(c1cccc(Cc2cccc3c(=O)[nH]c(=O)[nH]c23)c1)N1CCN(C(=O)C2CC2)CC1` [Compound 19]: the IC50 fell in the range of 1000 to 10000 nM. As for `N#Cc1ccc(N2CCN(C(=O)c3cccc(Cc4cccc5c4CCNC5=O)c3)CC2)nc1` [Compound 20], the figure is 100 to 1000 nM; as for `O=C1NCCc2c(Cc3cccc(C(=O)N4CCN(C(=O)C5CC5)CC4)c3)cccc21` [Compound 21], 1000 to 10000 nM. On to `O=C1NCCc2c(OCCOCC(=O)N3CCN(c4ncc(C(F)(F)F)cn4)CC3)cccc21` [Compound 22], for which the 50% inhibitory concentration (IC50) was in the range of 1000 to 10000 nM. With `O=C1NCCc2c(CCOCCC(=O)N3CCN(c4ncc(C(F)(F)F)cn4)CC3)cccc21` [Compound 23], the IC50 lay in the range of 100 to 1000 nM.

On to `N#Cc1ccc(N2CCN(C(=O)c3cccc(Cn4ncc5c(=O)[nH]ncc54)c3)CC2)nc1` [Compound 24], for which the IC50 is 100 to 1000 nM. As for `O=C(c1cccc(Cc2cccc3c(=O)[nH]ncc23)c1)N1CCN(c2ncc(C(F)(F)F)cn2)CC1` [Compound 25], the figure is at most 100 nM. For the compound `N#Cc1ccc(N2CCN(C(=O)c3cccc(Cc4cccc5c(=O)[nH]ncc45)c3)CC2)cc1` [Compound 26], the IC50 lay within 1000 to 10000 nM.

Consider `O=C(c1cccc(Cc2cccc3c(=O)[nH]ncc23)c1)N1CCN(c2ccccc2)CC1` [Compound 27], for which the IC50 was 1000 to 10000 nM. Take `N#Cc1ccc(N2CCCN(C(=O)c3cccc(Cc4cccc5c(=O)[nH]ncc45)c3)CC2)nc1` [Compound 28]: the IC50 was in the range of 100 to 1000 nM. On to `N#Cc1ccc(N2CCN(C(=O)c3cccc(Oc4cccc5c(=O)[nH]ncc45)c3)CC2)nc1` [Compound 29], for which the IC50 is 100 to 1000 nM.

With `N#Cc1ccc(N2CCN(C(=O)c3cccc(Nc4cccc5c(=O)[nH]ncc45)c3)CC2)nc1` [Compound 30], the IC50 is at most 100 nM. As for `N#Cc1ccc(N2CCN(C(=O)c3ccc(Cc4cccc5c(=O)[nH]ncc45)cc3)CC2)nc1` [Compound 32], the IC50 lay in the range of 1000 to 10000 nM. As for `CC(C)(COCC(=O)N1CCN(c2ncc(C(F)(F)F)cn2)CC1)Oc1cccc2c(=O)[nH]ncc12` [Compound 34], the figure is 1000 to 10000 nM. On to `O=C(CCCCOc1cccc2c(=O)[nH]ncc12)N1CCN(c2ncc(C(F)(F)F)cn2)CC1` [Compound 35], for which the IC50 lay in the range of 100 to 1000 nM. Consider `O=C(NCCCOc1cccc2c(=O)[nH]ncc12)N1CCN(c2ncc(C(F)(F)F)cn2)CC1` [Compound 36], for which the half-inhibitory concentration (IC50) was 1000 to 10000 nM. Regarding `O=C(CCCOc1cccc2c(=O)[nH]ncc12)N1CCN(c2ncc(C(F)(F)F)cn2)CC1` [Compound 37], the IC50 was 1000 to 10000 nM. `N#Cc1ccc(N2CCN(C(=O)Cc3cccc(Cc4cccc5c(=O)[nH]ncc45)c3)CC2)nc1` [Compound 38]: the concentration for half-maximal inhibition (IC50) was 1000 to 10000 nM. As for `N#Cc1ccc(N2CCN(S(=O)(=O)c3cccc(Cc4cccc5c(=O)[nH]ncc45)c3)CC2)nc1` [Compound 39], the figure is 1000 to 10000 nM; as for `N#Cc1ccc(N2CCN(C(=O)c3cccc(COc4cccc5c(=O)[nH]ncc45)c3)CC2)nc1` [Compound 40], 100 to 1000 nM. `N#Cc1ccc(N2CCN(C(=O)c3ccc(COc4cccc5c(=O)[nH]ncc45)cc3)CC2)nc1` [Compound 41]: the IC50 was 1000 to 10000 nM.

In the case of `N#Cc1ccc(N2CCN(C(=O)c3cccc(OCCc4cccc5c(=O)[nH]ncc45)c3)CC2)nc1` [Compound 42], the IC50 was at most 100 nM.

Take `CN(CCOCC(=O)N1CCN(c2ncc(C(F)(F)F)cn2)CC1)c1cccc2c(=O)[nH]ncc12` [Compound 43]: the IC50 lay in the range of 100 to 1000 nM. With `N#Cc1ccc(N2CCN(C(=O)CCOCCN3CCCc4c3cn[nH]c4=O)CC2)nc1` [Compound 44], the IC50 is at most 100 nM. As for `O=C(CCOCCc1cccc2c(=O)[nH]c(=O)[nH]c12)N1CCN(c2ncc(C(F)(F)F)cn2)CC1` [Compound 45], the figure is at most 100 nM; as for `N#Cc1ccc(N2CCN(C(=O)c3cccc(Cc4cccc5c4NCNC5=O)c3)CC2)nc1` [Compound 46], 100 to 1000 nM; as for `O=C1NCNc2c(OCCOCC(=O)N3CCN(c4ncc(C(F)(F)F)cn4)CC3)cccc21` [Compound 47], 1000 to 10000 nM. For the compound `O=C1NCNc2c(CCOCCC(=O)N3CCN(c4ncc(C(F)(F)F)cn4)CC3)cccc21` [Compound 48], the IC50 was at most 100 nM. Consider `CNCc1cc2c(=O)[nH]ncc2n1CCOCCC(=O)N1CCN(c2ncc(C(F)(F)F)cn2)CC1` [Compound 49], for which the half-maximal inhibitory concentration (IC50) was 100 to 1000 nM.

On to `O=C(CCOCCn1ncc2c(=O)[nH]ncc21)N1CCN(c2ncc(C(F)(F)F)cn2)CC1` [Compound 50, 1-(2-(3-oxo-3-(4-(5-(trifluoromethyl)pyrimidin-2-yl)piperazin-1-yl)propoxy)ethyl)-1,5-dihydro-4H-pyrazolo[3,4-d]pyridazin-4-one], for which the IC50 was at most 100 nM.

Regarding `O=C(CCOCCn1cnc2c(=O)[nH]ncc21)N1CCN(c2ncc(C(F)(F)F)cn2)CC1` [Compound 51], the IC50 is 100 to 1000 nM.

With `O=C(CCOCCc1cccc2c(=O)[nH]nnc12)N1CCN(c2ncc(C(F)(F)F)cn2)CC1` [Compound 52], the IC50 fell in the range of 100 to 1000 nM. Turning to `O=C(CCOCCn1ccc2c(=O)[nH]cnc21)N1CCN(c2ncc(C(F)(F)F)cn2)CC1` [Compound 53], the IC50 was 100 to 1000 nM.
